In patent US20130011361A1, “PYRAZOLE DERIVATIVES WHICH MODULATE STEAROYL-COA DESATURASE” (XENON PHARMACEUTICALS INC., priority 2009, published 2013):

How the values were obtained:
[1] = target: T1, stearoyl-CoA desaturase (SCD1) (Mus musculus, UniProt P13516); assay: SCD inhibition assay using mouse liver microsomes (release of 3H2O from [9,10-3H]stearoyl-CoA); format: biochemical; conditions: 15 min incubation, 25° C., read-out: Microsomal IC50
T1 construct: Reactions are started by adding 50 μL of microsomes (1.25 mg/mL); from tissue; host or cells: liver microsomes of male ICR outbred mice on a high-carbohydrate, low-fat diet
T1 sequence (P13516 1-355): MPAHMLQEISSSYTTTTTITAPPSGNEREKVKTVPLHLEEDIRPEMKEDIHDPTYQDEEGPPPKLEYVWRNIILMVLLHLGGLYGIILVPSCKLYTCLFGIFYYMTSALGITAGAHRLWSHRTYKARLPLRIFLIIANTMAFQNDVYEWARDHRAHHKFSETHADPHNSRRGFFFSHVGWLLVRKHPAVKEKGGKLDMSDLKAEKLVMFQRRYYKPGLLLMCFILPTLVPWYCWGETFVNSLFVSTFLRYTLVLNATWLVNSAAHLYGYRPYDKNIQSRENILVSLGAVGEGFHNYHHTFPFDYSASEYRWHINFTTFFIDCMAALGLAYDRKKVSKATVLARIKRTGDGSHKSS
Procedure: Measuring Stearoyl-CoA Desaturase Inhibition Activity of a Test Compound Using Mouse Liver Microsomes
Livers are immediately rinsed with cold 0.9% NaCl solution, weighed and minced with scissors. All procedures are performed at 4° C. unless specified otherwise. Livers are homogenized in a solution (1/3 w/v) containing 0.25 M sucrose, 62 mM potassium phosphate buffer (pH 7.0), 0.15 M KCl, 15 mM N-acetyleysteine, 5 mM MgCl2, and 0.1 mM EDTA using 4 strokes of a Potter-Elvehjem tissue homogenizer. The homogenate is centrifuged at 10,400×g for 20 min to eliminate mitochondria and cellular debris. The supernatant is filtered through a 3-layer cheesecloth and centrifuged at 105,000×g for 60 min. The microsomal pellet is gently resuspended in the same homogenization solution with a small glass/teflon homogenizer and stored at ˜70° C. The absence of mitochondrial contamination is enzymatically assessed. The protein concentration is measured using bovine serum albumin as the standard.
Desaturase activity is measured as the release of ^3H2O from [9,10-^3H]stearoyl-CoA. Reactions per assay point conditions are as follows: 2 μL 1.5 mM stearoyl-CoA, 0.25 μL 1 mCi/mL ^3H stearoyl CoA, 10 μL 20 mM NADH, 36.75 μL 0.1 M PK buffer (K2HPO4/NaH2PO4, pH 7.2). The test compound or control solution is added in a 1 μL volume. […] The plates are mixed and after 15 min incubation on a heating block (25° C.), the reactions are stopped by the addition of 10 μL 60% PCA. An aliquot of 100 μL is then transferred to a filter plate pretreated with charcoal and the plate centrifuged at 4000 rpm for 1 minute. The flow through containing the ^3H2O released by the SCD1 desaturation reaction is added to scintillation fluid and the radioactivity measured in a Packard TopCount. The data is analysed to identify the IC50 for test compounds and reference compounds.
The activity was defined in terms of % SCD enzyme activity remaining at the desired concentration of the test compound or as the IC50 concentration.

| Structure (SMILES) | IC50 [1] | melting point |
| --- | --- | --- |
| Cn1cc(CNC(=O)c2cc(N3CCN(Cc4ccc(F)cc4)C3=O)n[nH]2)cn1 [Example 8.1, 3-(3-(4-fluorobenzyl)-2-oxoimidazolidin-1-yl)-N-((1-methyl-1H-pyrazol-4-yl)methyl)-1H-pyrazole-5-carboxamide] | 122 nM | 244 to 245 °C |
| Cc1cc(CNC(=O)c2cc(N3CCN(Cc4ccc(F)cc4)C3=O)n[nH]2)no1 [Example 5, 3-(3-(4-fluorobenzyl)-2-oxoimidazolidin-1-yl)-N-((5-methylisoxazol-3-yl)methyl)-1H-pyrazole-5-carboxamide] | 37 nM | 294 to 296 °C (dec.) |
| O=C(NCc1cocn1)c1cc(-n2cnn(Cc3ccc(F)cc3)c2=O)n[nH]1 [Example 8.6, 3-(1-(4-fluorobenzyl)-5-oxo-1H-1,2,4-triazol-4(5H)-yl)-N-(oxazol-4-ylmethyl)-1H-pyrazole-5-carboxamide] | 165 nM | 267 to 268 °C |
| O=C(NCc1ccccc1)c1cc(-n2cnn(Cc3ccc(F)cc3)c2=O)n[nH]1 [Example 2.1, N-benzyl-3-(1-(4-fluorobenzyl)-5-oxo-1H-1,2,4-triazol-4(5H)-yl)-1H-pyrazole-5-carboxamide] | 6 nM | – |
| NC(=O)c1cc(-n2cnn(Cc3ccc(F)cc3)c2=O)n[nH]1 [Example 8.5, 3-(1-(4-fluorobenzyl)-5-oxo-1H-1,2,4-triazol-4(5H)-yl)-1H-pyrazole-5-carboxamide] | 488 nM | > 270 °C |
| O=C(NCc1ccccn1)c1cc(N2CCN(Cc3ccc(F)cc3)C2=O)n[nH]1 [Example 3, 3-(3-(4-fluorobenzyl)-2-oxoimidazolidin-1-yl)-N-(pyridin-2-ylmethyl)-1H-pyrazole-5-carboxamide] | 45 nM | 235 to 237 °C |
| Cc1cc(CNC(=O)c2cc(N3CCN(Cc4ccc(F)cc4)C3=O)n[nH]2)n[nH]1 [Example 4, 3-(3-(4-fluorobenzyl)-2-oxoimidazolidin-1-yl)-N-((5-methyl-1H-pyrazol-3-yl)methyl)-1H-pyrazole-5-carboxamide] | 88 nM | 254 to 255 °C |
| O=C(NCc1cccnc1)c1cc(N2CCN(Cc3ccc(F)cc3)C2=O)n[nH]1 [Example 6, 3-(3-(4-fluorobenzyl)-2-oxoimidazolidin-1-yl)-N-(pyridin-3-ylmethyl)-1H-pyrazole-5-carboxamide] | 3 nM | 251 to 253 °C |

Now from value to compound:

| IC50 [1] | melting point | Structure (SMILES) |
| --- | --- | --- |
| 368 nM | 256 to 258 °C | NC(=O)c1cc(N2CCN(Cc3ccc(F)cc3)C2=O)n[nH]1 [Example 8.4, 3-(3-(4-fluorobenzyl)-2-oxoimidazolidin-1-yl)-1H-pyrazole-5-carboxamide] |
| 7 nM | 235 to 236 °C | O=C(NCc1cccnc1)c1cc(-n2cnn(Cc3ccc(F)cc3)c2=O)n[nH]1 [Example 2, 3-(1-(4-fluorobenzyl)-5-oxo-1H-1,2,4-triazol-4(5H)-yl)-N-(pyridin-3-ylmethyl)-1H-pyrazole-3-carboxamide] |
| 65 nM | 262 to 263 °C | O=C(NCc1ccncc1)c1cc(-n2cnn(Cc3ccc(F)cc3)c2=O)n[nH]1 [Example 8.8, 3-(1-(4-fluorobenzyl)-5-oxo-1H-1,2,4-triazol-4(5H)-yl)-N-(pyridin-4-ylmethyl)-1H-pyrazole-5-carboxamide] |
| 23 nM | 224 to 225 °C | O=C(NCc1ccccn1)c1cc(-n2cnn(Cc3ccc(F)cc3)c2=O)n[nH]1 [Example 8, 3-(1-(4-fluorobenzyl)-5-oxo-1H-1,2,4-triazol-4(5H)-yl)-N-(pyridin-2-ylmethyl)-1H-pyrazole-5-carboxamide] |
| 11 nM | – | O=C(NCc1ccccc1)c1cc(N2CCN(Cc3ccc(F)cc3)C2=O)n[nH]1 [Example 8.3, N-benzyl-3-(3-(4-fluorobenzyl)-2-oxoimidazolidin-1-yl)-1H-pyrazole-5-carboxamide] |
| 22 nM | 276 to 277 °C | Cc1cc(CNC(=O)c2cc(-n3cnn(Cc4ccc(F)cc4)c3=O)n[nH]2)no1 [Example 7, 3-(1-(4-fluorobenzyl)-5-oxo-1H-1,2,4-triazol-4(5H)-yl)-N-((5-methylisoxazol-3-yl)methyl)-1H-pyrazole-5-carboxamide] |
| 8 nM | 272 to 274 °C | O=C(NCc1nccs1)c1cc(N2CCN(Cc3ccc(F)cc3)C2=O)n[nH]1 [Example 8.2, 3-(3-(4-fluorobenzyl)-2-oxoimidazolidin-1-yl)-N-(thiazol-2-ylmethyl)-1H-pyrazole-5-carboxamide] |
| 385 nM | 268 to 269 °C | CNC(=O)c1cc(-n2cnn(Cc3ccc(F)cc3)c2=O)n[nH]1 [Example 2.2, 3-(1-(4-Fluorobenzyl)-5-oxo-1H-1,2,4-triazol-4(5H)-yl)-N-methyl-1H-pyrazole-5-carboxamide] |
| 8 nM | 208 to 209 °C | O=C(NCc1ccc(F)c(F)c1)c1cc(-n2cnn(Cc3ccc(F)cc3)c2=O)n[nH]1 [Example 1, N-(3,4-difluorobenzyl)-3-(1-(4-fluorobenzyl)-5-oxo-1H-1,2,4-triazol-4(5H)-yl)-1H-pyrazole-5-carboxamide] |
